Assay results taken from US20140005163A1 (NOVARTIS AG, priority 2010, published 2014).
pIC50: −log10 of the molar value.

Legend:
[1] = Cellular CaCo2 permeability assay from apical to basal (A-B); assay type: in vitro ADME; settings: human, Caco-2, read-out: Pe A-B (permeability)
From the text: The permeability in 10^−6 cm/s of compounds of formula (I) have been confirmed for selected example using a cellular CaCo2 permeability assay from apical to basal (A-B): […]

PI3K gamma = target: T1, PI3K gamma (Homo sapiens, UniProt P48736); test: PI3K gamma kinase assay (Kinase-Glo luminescence); assay type: biochemical
T1 construct: His tag (C); made in house; host or cells: baculovirus (pVL1393); Tn5 or TiniPro insect cells; construct from Roger Williams lab, MRC LMB
T1 sequence (P48736 144-1102 limits assumed): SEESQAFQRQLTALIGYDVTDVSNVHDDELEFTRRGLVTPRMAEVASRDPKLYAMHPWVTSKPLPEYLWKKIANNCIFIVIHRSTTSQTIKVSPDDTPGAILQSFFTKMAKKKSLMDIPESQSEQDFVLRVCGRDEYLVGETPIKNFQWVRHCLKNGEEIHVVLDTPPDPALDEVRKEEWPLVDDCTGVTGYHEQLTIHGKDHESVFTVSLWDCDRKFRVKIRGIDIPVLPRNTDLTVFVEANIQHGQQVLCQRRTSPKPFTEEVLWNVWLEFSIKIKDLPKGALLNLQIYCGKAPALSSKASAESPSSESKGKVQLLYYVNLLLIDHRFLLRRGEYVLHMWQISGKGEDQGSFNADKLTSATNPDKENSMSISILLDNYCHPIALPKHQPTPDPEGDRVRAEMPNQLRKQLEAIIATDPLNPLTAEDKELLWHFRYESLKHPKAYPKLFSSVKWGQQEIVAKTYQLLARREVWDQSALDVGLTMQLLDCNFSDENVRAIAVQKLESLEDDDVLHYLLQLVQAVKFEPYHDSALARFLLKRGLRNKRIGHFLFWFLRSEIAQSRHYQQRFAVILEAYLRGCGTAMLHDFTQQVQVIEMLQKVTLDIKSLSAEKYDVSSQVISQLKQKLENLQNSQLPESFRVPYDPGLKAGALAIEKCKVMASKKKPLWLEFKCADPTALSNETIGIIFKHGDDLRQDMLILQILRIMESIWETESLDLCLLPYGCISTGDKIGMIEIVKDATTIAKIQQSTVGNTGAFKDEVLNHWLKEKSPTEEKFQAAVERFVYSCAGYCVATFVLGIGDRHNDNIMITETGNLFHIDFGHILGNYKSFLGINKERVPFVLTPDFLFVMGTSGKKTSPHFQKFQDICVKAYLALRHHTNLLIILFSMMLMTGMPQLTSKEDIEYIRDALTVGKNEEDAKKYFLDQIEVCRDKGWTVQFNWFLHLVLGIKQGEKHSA
Procedure, shortened: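 PI3Kγ (150 nM) reaction run 120 min at room temperature with phosphatidylinositol substrate (10 μg/mL) and ATP (1 μM) in Tris pH 7.5 buffer containing MgCl2, NaCl, CHAPS and DTT. Remaining ATP detected by Kinase-Glo luminescence; 8 concentrations per compound, IC50 from 4-parameter curve fitting.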

CCOc1ccc(-c2ccc3ncc4c(c3c2)n(-c2cn(C)nc2C)c(=O)n4C)cn1 [Example 3.1, 1-(1,3-Dimethyl-1H-pyrazol-4-yl)-8-(6-ethoxy-pyridin-3-yl)-3-methyl-1,3-dihydro-imidazo[4,5-c]quinolin-2-one]
Papp A→B [1]: 28.6 ×10⁻⁶ cm/s
pIC50 (PI3K gamma): 6.61

Cc1nn(C)cc1-n1c(=O)n(C)c2cnc3ccc(-c4cnc(N(C)C)nc4)cc3c21 [Example 6.2, 8-(2-Dimethylamino-pyrimidin-5-yl)-1-(1,3-dimethyl-1H-pyrazol-4-yl)-3-methyl-1,3-dihydro-imidazo[4,5-c]quinolin-2-one]
Papp A→B [1]: 26.6 ×10⁻⁶ cm/s
pIC50 (PI3K gamma): 6.50

COc1cncc(-c2ccc3ncc4c(c3c2)n(-c2cn(C)nc2C)c(=O)n4C)c1 [Example 12, 1-(1,3-Dimethyl-1H-pyrazol-4-yl)-8-(5-methoxy-pyridin-3-yl)-3-methyl-1,3-dihydro-imidazo[4,5-c]quinolin-2-one]
Papp A→B [1]: 24 ×10⁻⁶ cm/s
pIC50 (PI3K gamma): 7.04

CCOc1cncc(-c2ccc3ncc4c(c3c2)n(-c2cn(C)nc2C)c(=O)n4C)c1 [Example 56.1, 1-(1,3-Dimethyl-1H-pyrazol-4-yl)-8-(5-ethoxy-pyridin-3-yl)-3-methyl-1,3-dihydro-imidazo[4,5-c]quinolin-2-one]
Papp A→B [1]: 39.7 ×10⁻⁶ cm/s
pIC50 (PI3K gamma): 6.91

COc1ccc(-c2ccc3ncc4[nH]c(=O)n(-c5cc(C)nn5C)c4c3n2)cc1OC [Example 252, 8-(3,4-Dimethoxy-phenyl)-1-(2,5-dimethyl-2H-pyrazol-3-yl)-1,3-dihydro-1,3,5,9-tetraaza-cyclopenta[a]naphthalen-2-one]
Papp A→B [1]: 29.4 ×10⁻⁶ cm/s
pIC50 (PI3K gamma): 7.35
